Measurements from paper PMC9163831 (Frontiers in Microbiology, 2022).

Tests used:
[1] = test system: human lung epithelial cells (A549); set-up: method as in Zhang et al., [2019]; settings: ref Zhang et al., [2019]; cited from earlier work
[2] = test system: Salmonella 26FS14 (mcr-1); assay: Antimicrobial combination susceptibility testing (MIC, MBC, checkerboard FICI) in MH broth; format: cell-based, S. typhimurium; settings: for MIC (in combination): colistin + IBG checkerboard
Experimental: (§1) The susceptibility of the selected Salmonella isolates and quality control isolate (ATCC 25922) to colistin and IBG in MH broth was investigated in accordance with the methods and quality control requirements recommended by the Clinical and Laboratory Standards Institute. Minimal inhibitory concentration (MIC) was the lowest concentration of colistin where visible bacterial growth was inhibited after 24 h of incubation. E. coli ATCC 25922 was used as the quality control strain to ensure the credibility of MICs tested. Susceptibility testing was performed in triplicate and germ-free controls (blank medium). The minimum bactericidal concentration (MBC) in MH broth was measured according to a previous report (Lei et al., [2017]). The synergistic activity between colistin and IBG, and the fractional inhibitory concentration indices (FICI) were measured by checkerboard assays, based on the MIC of each drug (MacNair et al., [2018]). In brief, 50 μL of broth was added to each well, and 50 μL of the indicated concentration of colistin was added into the first well of each line. This process was followed by multiple proportion dilution. Next, 50 μL of samples of different IBG concentrations was added to the dilution medium, and 100 μL of inoculum with a cell density of ~1 × 10^6 colony-forming units (CFU)/mL was added to each well. The FICI was calculated follows:
(§2) (1) FICI=MIC(Colistinincombination)/MIC(Colistin)+MIC(IBGincombination)/MIC(IBG).

Salmonella S235 (mcr-1) = assay: as above; format: cell-based, S. typhimurium; settings: for MIC (in combination): colistin + IBG checkerboard
Experimental: as §1, §2

[3] = test system: Salmonella 26FS26 (mcr-1); assay: as above; format: cell-based, S. typhimurium; settings: for MIC (in combination): colistin + IBG checkerboard
Experimental: as §1, §2

Salmonella S226 (mcr-1) = assay: as above; format: cell-based, S. typhimurium; settings: for MIC (in combination): colistin + IBG checkerboard
Experimental: as §1, §2

Salmonella ATCC14028 = assay: as above; format: cell-based, S. typhimurium; settings: for MBC / MIC: alone; for MIC (in combination): colistin + IBG checkerboard
Experimental: as §1, §2

erythrocytes in mice = test system: erythrocytes in mice; set-up: method as in Zhang et al., [2019]; settings: ref Zhang et al., [2019]; cited from earlier work
[4] = set-up: method as in Xiao et al., [2018]; settings: IBG supplementation; ref Xiao et al., [2018]; cited from earlier work
[5] = test system: mcr-1-positive Salmonella; assay: MIC of colistin with and without IBG; format: cell-based
Experimental: as §1, with “well.” for “well. The FICI was calculated follows:”

[6] = Pharmacokinetics of colistin in ileum contents, mcr-1-positive Salmonella infection model; format: in vivo, broilers; settings: for AUC0-24h (intestinal colistin) / Cmax (peak intestinal colistin concentration) / T>MIC: infected broiler
Experimental: After 7-day acclimation, 200 infected broilers were randomly divided into five groups (n = 40/group). Pharmacokinetic analysis of colistin (2, 4, 8, and 16 mg/kg) alone and in combination (4 mg/kg colistin, 32 mg/kg IBG) was performed in mcr-1-positive Salmonella infection broilers following oral gavage. At 0.25, 0.5, 0.75, 1, 2, 4, 6, 8, 12, and 24 h after oral administration, four broilers per group were humanely killed and ileum contents (0.5 g) were sampled. The concentration of colistin in each ileum content sample was determined by validated liquid chromatography-tandem mass spectrometry (LC-MS/MS), with minor modifications. Briefly, intestinal contents (0.5 g) were extracted with 10 mL of 10% trichloroacetic acid and 10 mL of 4% lead acetate, homogenized for 1 min, ultrasonicated (30 min) and centrifuged (10,000 g, 10 min) to obtain supernatant. Thereafter, 2 mL of extraction solution was applied to HLB SPE cartridges, which were prewashed with 3 mL of methanol and 3 mL of water. The cartridges were then rinsed with 3 mL of 4% lead acetate. Afterward, the colistin was eluted with 6 mL of 20% methanol. The elute was evaporated to dryness under a gentle N2 stream at 40°C and the residue was dissolved in 0.5 mL of 0.1% formic acid for concentration analysis. The drug concentrations in intestinal contents were determined using HPLC-MS/MS. The calibration range was 0.25–5 μg/g. The intraday and interday precision levels varied from 2.1 to 9.8% and from 4.5 to 7.0%, respectively. The limit of detection (LOD) and limit of quantification (LOQ) were 0.10 and 0.25 μg/g, respectively.
The values of colistin intestinal content PK parameters in single-dose PK studies were obtained by non-compartmental analysis in Phoenix WinNonlin® 8.2 (Certara, L.P., Princeton, NJ, USA).

[7] = test system: mcr-1-positive Salmonella; assay: In vitro time-killing curves; format: cell-based
Experimental: After MIC determination, different concentrations of colistin were prepared in broth ranging from different doses before bacterial inoculation (10^6 CFU/mL). Growth was checked with control. The tubes containing bacteria and different concentrations of colistin and IBG were incubated at 37°C. The bacterial count (CFU/mL) was determined for each tube after 0, 1, 2, 4, 6, 8, 12, and 24 h of incubation. In brief, 100 μL of culture was obtained for each time point, and serially diluted, and the colonies were counted the next morning. Each concentration test was performed in triplicate.

[8] = test system: mcr-1-positive Salmonella; assay: PK/PD analysis, inhibitory effect Imax model; format: in vivo, broilers
Experimental: PK/PD analysis was conducted using the inhibitory effect Imax model (Riviere and Toutain, [2011]). This model is described by the following equation: […]
where E is the antibacterial effect, measured as change in log10CFU/g after 24 h of treatment, compared with the initial log10CFU/g in the untreated control broiler; E0 is the difference in the number of bacteria (log10CFU/g) in control samples between time 0 and 24 h. Imax is the maximum antimicrobial growth inhibition determined as the change in log10CFU/g after 24 h treatment with colistin combined with IBG. X is the predictive variable (expressed as AUC0−24h/MIC, Cmax/MIC, and %T>MIC), and IC50 is the X value producing 50% of the maximum antibacterial effect. The relationship between efficacy and the three PK/PD indices was determined by non-linear least-squares regression in a Phoenix WinNonlin® PD model. The coefficient of determination (R^2) was used to estimate the variance caused by regression for each PK/PD index.

[9] = test system: mcr-1-positive Salmonella; assay: Pharmacodynamics of colistin combined with IBG in an intestinal infection model; format: in vivo, broilers
Experimental: Broilers were inoculated by oral gavage with 1 mL of mcr-1-positive Salmonella culture containing […]. Necropsies of broilers that had died from infection and of euthanized animals were investigated, and the ileum content samples of broilers were taken as previously described (Addwebi et al., [2014]; Wang et al., [2020]). DNA was extracted from ileum content samples using a fecal DNA extraction kit (G-Clone, Beijing, China) in accordance with the manufacturer's instructions.
Pharmacodynamic analysis of combined colistin and IBG treatment in mcr-1-positive Salmonella infection broilers was performed at 3 h after administration of the inoculum. Afterward, 32 mg/kg of IBG was combined with 2, 4, 8, or 16 mg/kg of colistin, and colistin and IBG were also tested alone at 2, 4, 8, and 16 mg/kg (n = 4 for each group). The broilers were sacrificed after 24 h of therapy, and the intestinal content samples were aseptically removed and homogenized for CFU determination. Untreated control broilers were sacrificed before colistin treatment and at 24 h after treatment.

[10] = set-up: method as in Mead et al. ([2021]); settings: oral administration, 75,000 I.U./kg, chicken; ref Mead et al. ([2021]); cited from earlier work
[11] = test system: mcr-1-positive Salmonella; assay: Dose determination from AUC/MIC targets; format: in vivo, broilers; settings: combination: with 32 mg/kg of IBG
Text: The potential optimal dosage can be calculated using the following equation (Toutain et al., [2002], [2007]):
(3) Dose=(AUC/MIC)·MIC·CL/fu·F,
where dose (per day) is at steady state; CL is the clearance per day; AUC/MIC is the targeted endpoint for optimal efficacy in hours; MIC is the target pathogen; F is the bioavailability factor (from 0 to 1), and fu is the free fraction of the drug (from 0 to 1). In this study, fu = 1.

[12] = single gavage 16 mg/kg colistin

For `CC(C)Oc1ccc(/C=N/NC(=N)N/N=C/c2ccc(OC(C)C)cc2)cc1` [IBG, isopropoxy benzene guanidine], the “Cytotoxicity IC50” value [1] is given as 28 µg/mL, the “MIC (in combination)” value [2] is given as 8 mg/L and the “MIC (in combination)” value (Salmonella S235 (mcr-1)) is given as 16 mg/L. For the same compound, the “MIC (in combination)” value [3] was 16 mg/L, the “MIC (in combination)” value (Salmonella S226 (mcr-1)) was 16 mg/L and the MBC (Salmonella ATCC14028) was over 512 mg/L. For the same compound, the MIC (Salmonella ATCC14028) was over 512 mg/L, the “MIC (in combination)” value (Salmonella ATCC14028) was 4 mg/L and the HC50 (erythrocytes in mice) was over 400 µg/mL. For the same compound, the “Adverse reactions in broilers” value [4] was “without adverse reactions”, the “Average daily gain of broilers” value [4] was “improved” and the “Diarrhea rate of broilers” value [4] was “reduced”.
For Colistin sulfate, the MIC of colistin ([5]; colistin alone) was 2 mg/L, the “MIC of colistin in the presence of IBG” value ([5]; in the presence of 8 mg/L of IBG) was 0.25 mg/L and the MBC ([2]; alone) was 4 mg/L. For the same compound, the MIC ([2]; alone) was 2 mg/L, the “MIC (in combination)” value [2] was 0.25 mg/L and the MBC (Salmonella S235 (mcr-1); alone) was 4 mg/L. For the same compound, the MIC (Salmonella S235 (mcr-1); alone) was 2 mg/L, the “MIC (in combination)” value (Salmonella S235 (mcr-1)) was 0.25 mg/L and the MBC ([3]; alone) was 4 mg/L. For the same compound, the MIC ([3]; alone) was 2 mg/L, the “MIC (in combination)” value [3] was 0.5 mg/L and the MBC (Salmonella S226 (mcr-1); alone) was 4 mg/L. For the same compound, the MIC (Salmonella S226 (mcr-1); alone) was 2 mg/L, the “MIC (in combination)” value (Salmonella S226 (mcr-1)) was 0.25 mg/L and the MBC (Salmonella ATCC14028) was 1 mg/L. The MIC (Salmonella ATCC14028) was 0.5 mg/L, the “MIC (in combination)” value (Salmonella ATCC14028) was 0.125 mg/L and the “Colistin in ileum samples after 4 h” value ([6]; doses <16 mg/kg, after gavage) was “no colistin was detectable”. For the same compound, the “AUC0-24h (intestinal colistin)” value ([6]; single gavage 2 mg/kg colistin) was 31.58 mg·h/L, the “Cmax (peak intestinal colistin concentration)” value (“Cmax” below) ([6]; single gavage 2 mg/kg colistin) was 13.74 mg/L and the “T>MIC” value ([6]; single gavage 2 mg/kg colistin) was 15.11%. For the same compound, the “AUC0-24h (intestinal colistin)” value ([6]; single gavage 4 mg/kg colistin) was 43.79 mg·h/L, the “Cmax” value ([6]; single gavage 4 mg/kg colistin) was 34.37 mg/L and the “T>MIC” value ([6]; single gavage 4 mg/kg colistin) was 16.48%. For the same compound, the “AUC0-24h (intestinal colistin)” value ([6]; single gavage 8 mg/kg colistin) was 191.81 mg·h/L, the “Cmax” value ([6]; single gavage 8 mg/kg colistin) was 75.92 mg/L and the “T>MIC” value ([6]; single gavage 8 mg/kg colistin) was 16.62%. For the same compound, the “AUC0-24h (intestinal colistin)” value [6, 12] was 505.29 mg·h/L, the “Cmax” value [6, 12] was 151.15 mg/L and the “T>MIC” value [6, 12] was 99.98%. The Time-kill result ([7]; colistin at 4 mg/L, mcr-1-positive Salmonella) was “Persisting inhibition of bacterial growth”, the “Killing characteristic (time-kill profiles)” value ([7]; varying concentrations, 24 h) was “concentration-dependent killing” and the E0 ([8]; Imax model, AUC0-24h/MIC index) was 0.51 log10CFU/g. The “IC50 (AUC0-24h/MIC producing 50% of the maximum antibacterial effect)” value ([8]; Imax model, AUC0-24h/MIC index) was 122.19, the Imax ([8]; Imax model, AUC0-24h/MIC index) was 4.55 log10CFU/g and the “AUC0-24h/MIC for 1 log10 kill” value ([8]; intestinal infection model) was 60.66. The “AUC0-24h/MIC for 2 log10 kill” value ([8]; intestinal infection model) was 150.15, the “AUC0-24h/MIC for bacteriostatic action” value ([8]; intestinal infection model) was 15.62 and the “Effect on broilers infected with mcr-1 positive Salmonella” value ([9]; single dose of 2–16 mg/kg of colistin every 24 h) was “not significant effect”. For the same compound, the “3 × log10 kill effect in vivo” value ([9]; ≤ 16 mg/kg of colistin, monotherapy) was “could not achieve”, the “Time to colistin levels below the LOQ after dosing cessation” value [10] was at most 4 h and the “Dose of colistin required to reach 1 × log10 kill” value [11] was 7.54 mg/kg. The “Dose of colistin required to reach 3 × log10 kill” value [11] was “could not achieve”, the “Dose of colistin required to reach 4 × log10 kill” value [11] was “could not achieve” and the “Dose of colistin required to reach stasis” value [11] was 1.94 mg/kg.
